Consider 9 compounds from patent US4009166A, “Pyrido(2,3-d) pyrimidinones” (Hisamitsu Pharmaceutical Co., Inc., priority 1974, dated 1977).

Where two headings read alike, the source gives them in different places.

Data set [1] has as its system writhing syndrome in dd-strain male mice. Kind of data set: Analgetic effect (acetic acid writhing syndrome). It counts as in vivo. The settings on record: Mus musculus, ip, read-out: analgetic effect ED50 (95 % C.L.), i.p. For orientation: An intraperitoneal irritant provokes the stretching counted in writhing tests.
A further data set deals with dd-strain male mice. The settings on record: deaths 72 hours after administration. Here is the method:
The lethal dose was estimated from the death of animals 72 hours after administration.

The test system of data set [2] is carrageenin edema in Wistar-strain male rats. Kind of data set: Anti-inflammatory effect (carrageenin edema of the hind paw). It counts as in vivo. The settings on record: Rattus norvegicus, po, rats, edema volume 3 hours after carrageenin; for inhibition in vivo at 10 mg/kg: 10 mg/kg orally, read-out: anti-inflammatory effect dose(mg/kg) 10 (inhibition percentage of carrageenin edema); for inhibition in vivo at 50 mg/kg: 50 mg/kg orally, read-out: anti-inflammatory effect dose(mg/kg) 50 (inhibition percentage of carrageenin edema). Here is the method:
2. Anti-inflammatory effect
A group of five Wistar-strain male rats (100-150 g) were orally administered with each test compound suspended in 0.5% tragacanth-saline solution. After 30 minutes 0.5-1.0% carrageenin suspended in the water for injection was injected subcutaneously to a hind paw. After 3 hours the carrageenin edema was measured by volume and the inhibition percentage was determined with respect to the results for the control animals. The inhibition percentages were shown with the notations as follows: […]
For orientation: Carrageenan injected into the paw causes an acute inflammation.

Data set [3] has as its system writhing syndrome in dd-strain male mice. Kind of data set: Analgetic effect (acetic acid writhing syndrome). It counts as in vivo. The settings on record: Mus musculus, po, orally, 0.6% acetic acid writhing, Litchfield-Wilcoxon, read-out: analgetic effect ED50 (95 % C.L.). Here is the method:
3. Analgetic effect Each test compound suspended in 0.5% tragacanth-saline solution was orally administered to dd-strain male mice (18-20 g). After one hour 0.6% acetic acid solution was intraperitoneally injected in a volume of 0.1 ml/10 g.

Data set [4] concerns righting reflex of dd-strain male mice. Kind of data set: Central nervous system depressive effect (disappearance of righting reflex). It is filed as in vivo. The settings on record: Mus musculus, ip; intraperitoneally, mice; read-out: C N S depressive effect (dose required for the disappearance of righting reflex). Here is the method: 4. Central nervous system depressive effect
Each test compound suspended in 0.5% tragacanth-saline solution was injected intraperitoneally to dd-strain male mice (16-24 g). The disappearance of righting reflex was observed under noiseless circumstances. The dose required for the disappearance of righting reflex is indicated with the following notations: […]

A word on the ED50: it is the dose at which the effect has come halfway, by size or by number of responders. Turning to `Cc1c(N(C)C)c(=O)n(-c2ccccc2)n1C` [aminopyrine, reference compound], in data set [1], the ED50 stood at 56 mg/kg. Also, the “acute toxicity i.p. (lethal dose)” value in the data set with dd-strain male mice lay within 100 to 300 mg/kg. Also, in data set [2], the inhibition in vivo at 10 mg/kg is under 15% and the inhibition in vivo at 50 mg/kg is under 15%.
With `O=C1N(CCO)Cc2cccnc2N1c1cccc(C(F)(F)F)c1` [drawing 135/CH2 CH2 OH], in data set [3], the ED50 stood at 55 mg/kg. For the same compound, the minimal effective dose in data set [4] was over 1000 mg/kg. In the data set with dd-strain male mice, the “acute toxicity i.p. (lethal dose)” value was over 1000 mg/kg and the “acute toxicity p.o. (lethal dose)” value is over 2000 mg/kg. For the same compound, the inhibition in vivo at 50 mg/kg in data set [2] fell in the range of 16 to 30%.
Regarding `CCN1CN(c2cccc(C(F)(F)F)c2)c2ncccc2C1=O` [drawing 122/C2 H5], the median effective dose (ED50) in data set [3] is over 100 mg/kg. Further, the minimal effective dose in data set [4] lay within 30 to 100 mg/kg. Moreover, the “acute toxicity i.p. (lethal dose)” value in the data set with dd-strain male mice was over 1000 mg/kg. Further, in data set [2], the inhibition in vivo at 10 mg/kg is 16 to 30% and the inhibition in vivo at 50 mg/kg was over 61%.
For `CCN1Cc2cccnc2N(c2cccc(Br)c2)C1=O` [drawing 134/C2 H5] the same measures were 2.85 mg/kg, under 3 mg/kg, 100 300 mg/kg, 46 to 60% and 46 to 60%.
The like results for `CCN1Cc2cccnc2N(c2ccccc2)C1=O` [drawing 126/C2 H5] were, in that order, 2.1 mg/kg, 3 to 10 mg/kg, 300 mg/kg, 46 to 60% and 46 to 60%.
Take `CN1Cc2cccnc2N(c2cccc(C(F)(F)F)c2)C1=O` [drawing 135/CH3, 1-(m-trifluoromethylphenyl)-3-methyl-2-oxo-1,2,3,4-tetrahydropyrido[2,3-d]pyrimidine]: the median effective dose (ED50) in data set [3] came out at 6.6 mg/kg. The minimal effective dose in data set [4] lay in the range of 3 to 10 mg/kg. Besides, the “acute toxicity p.o. (lethal dose)” value in the data set with dd-strain male mice was under 500 mg/kg. Further, in data set [2], the inhibition in vivo at 10 mg/kg is 16 to 30% and the inhibition in vivo at 50 mg/kg is 46 to 60%.
Consider `CC(C)N1Cc2cccnc2N(c2ccc(Cl)c(Cl)c2)C1=O`, for which the ED50 in data set [3] was 16.3 mg/kg. In addition, the minimal effective dose in data set [4] was in the range of 3 to 10 mg/kg. Besides, in the data set on dd-strain male mice, the “acute toxicity i.p. (lethal dose)” value came to 1000 mg/kg and the “acute toxicity p.o. (lethal dose)” value turned out to be 2000 mg/kg. In addition, in data set [2], the inhibition in vivo at 10 mg/kg is 46 to 60% and the inhibition in vivo at 50 mg/kg is over 61%.
As for `CN1CN(c2cccc([N+](=O)[O-])c2)c2ncccc2C1=O` [drawing 123/CH3, 1-(m-nitrophenyl)-3-methyl-4-oxo-1,2,3,4-tetrahydropyrido[2,3-d]pyrimidine], in data set [3], the ED50 was 22 mg/kg. Further, the minimal effective dose in data set [4] is over 1000 mg/kg. The “acute toxicity i.p. (lethal dose)” value in the data set with dd-strain male mice is recorded as over 1000 mg/kg. Moreover, in data set [2], the inhibition in vivo at 10 mg/kg is under 15% and the inhibition in vivo at 50 mg/kg fell in the range of 16 to 30%.
In the case of `CC(C)N1Cc2cccnc2N(c2cccc(C(F)(F)F)c2)C1=O`, in data set [3], the median effective dose (ED50) was 6.7 mg/kg. The minimal effective dose in data set [4] is 10 to 30 mg/kg. In the data set on dd-strain male mice, the “acute toxicity i.p. (lethal dose)” value is recorded as over 1000 mg/kg and the “acute toxicity p.o. (lethal dose)” value was found to be 2000 mg/kg. In data set [2], the inhibition in vivo at 10 mg/kg was under 15% and the inhibition in vivo at 50 mg/kg was in the range of 46 to 60%.
